Measurements published in US8648081B2 (Eli Lilly and Company, priority 2011, dated 2014).

What follows are molecules tested on Lone star tick larvae (Amblyomma americanum) (assay: In Vitro Larval Immersion Microassay (LIM)). Settings: read-out: % Efficacy (percent larval mortality).
Method: In Vitro Larval Immersion Microassay (LIM)
The larval immersion microassay may be conducted as described in White, et al., J. Med. Entomol. […] Briefly, experimental test articles are formulated in dimethylsulfoxide (DMSO) to prepare a stock solution at a concentration of 10 mM. […] Approximately 30-50 Lone star tick larvae (Amblyomma americanum) are submerged into each well containing experimental test articles. After a 30 minute immersion period, larvae are removed with a wide-bore pipette tip in 0.05 ml of fluid, dispensed into a commercial paper tissue biopsy bag which is sealed at the top with a plastic dialysis clip, inverted and allowed to air dry for 60 minutes. Bags containing larvae are then incubated at approximately 27 degrees Celsius and >90% relative humidity. After 24 hours, bags are opened, live and dead larvae are counted and percent larval mortality is calculated as follows: % Efficacy=(# dead larvae)/(# total larvae)×100.
`O=C(CNC(=O)c1sc(C2=NOC(c3cc(Cl)c(F)c(Cl)c3)(C(F)(F)F)C2)c2c1CCC2)NCC(F)F` (centres unmarked) [Example 244, 3-[5-(3,5-dichloro-4-fluoro-phenyl)-5-trifluoromethyl-4,5-dihydro-isoxazol-3-yl]-5,6-dihydro-4H-cyclopenta[c]thiophene-1-carboxylic acid [(2,2-difluoro-ethylcarbamoyl)-methyl]-amide] was tested, and the mortality at 300 µM was ≥ 80%.
For `O=C(NC1CCS(=O)(=O)CC1)c1sc(C2=NOC(c3cc(Cl)c(Cl)c(Cl)c3)(C(F)(F)F)C2)c2c1CCCC2` (centres unmarked) [Example 75, 3-[5-(3,4,5-Trichloro-phenyl)-5-trifluoro-methyl-4,5-dihydro-isoxazol-3-yl]-4,5,6,7-tetrahydro-benzo[c]thiophene-1-carboxylic acid (1,1-dioxo-hexahydro-thiopyran-4-yl)-amide], the mortality at 300 µM was ≥ 80%.
For `O=C1CCC(NC(=O)c2sc(C3=NOC(c4cc(Cl)cc(Cl)c4)(C(F)(F)F)C3)c3c2CCC3)CC1` (centres unmarked) [Example 85, 3-(5-(3,5-dichloro-phenyl)-5-(trifluoro-methyl)-4,5-dihydro-isoxazol-3-yl)-N-(4-oxocyclohexyl)-5,6-dihydro-4H-cyclopenta[c] thiophene-1-carboxamide], the mortality at 300 µM was ≥ 80%.
In the case of `O=C(NC1CCCOC1)c1sc(C2=NOC(c3cc(Cl)cc(Cl)c3)(C(F)(F)F)C2)c2c1CCCC2` (centres unmarked) [Example 69], the mortality at 300 µM is reported as ≥ 80%.
`FC(F)(F)C1(c2cc(Cl)cc(Cl)c2)CC(c2cc3ccccc3s2)=NO1` (centres unmarked) [Example 233, 3-(benzo[b]thio-phen-2-yl)-5-(3,5-dichlorophenyl)-5-(trifluoromethyl)-4,5-dihydroisoxazole] was tested, and the mortality at 300 µM was ≥ 80%.
With `O=C(NC1CCN(CC(F)(F)F)C1=O)c1sc(C2=NOC(c3cc(Cl)c(Cl)c(Cl)c3)(C(F)(F)F)C2)c2c1CCC2` (centres unmarked) [Example 56, N-(2-oxo-1-(2,2,2-trifluoroethyl)pyrrolidin-3-yl)-3-(5-(3,4,5-trichlorophenyl)-5-(trifluoromethyl)-4,5-dihydroisoxazol-3-yl)-5,6-dihydro-4H-cyclopenta[c] thiophene-1-carboxamide] the mortality at 300 µM was ≥ 80%.
For `O=C(NC1CCOCC1)c1sc(C2=NOC(c3cc(Cl)cc(Cl)c3)(C(F)(F)F)C2)c2c1CCCC2` (centres unmarked) [Example 71, 3-(5-(3,5-dichloro-phenyl)-5-(trifluoro-methyl)-4,5-dihydro-isoxazol-3-yl)-N-(tetrahydro-2H-pyran-4-yl)-4,5,6,7-tetrahydrobenzo [c]thiophene-1-carboxamide], the mortality at 300 µM was ≥ 80%.
`O=C(CNC(=O)c1sc(C2=NOC(c3cc(Cl)c(F)c(Cl)c3)(C(F)(F)F)C2)c2c1CCC2)NCCF` (centres unmarked) [Example 246, 3-[5-(3,5-Dichloro-4-fluoro-phenyl)-5-trifluoromethyl-4,5-dihydro-isoxazol-3-yl]-5,6-dihydro-4H-cyclopenta[c]thiophene-1-carboxylic acid [(2-fluoro-ethylcarbamoyl)-methyl]-amide] was tested, and the mortality at 300 µM was ≥ 80%.
In the case of `C#CCNC(=O)CNC(=O)c1sc(C2=NOC(c3cc(Cl)cc(Cl)c3)(C(F)(F)F)C2)c2c1CCC2` (centres unmarked) [Example 43, 3-(5-(3,5-dichloro-phenyl)-5-(trifluoro-methyl)-4,5-dihydro-isoxazol-3-yl)-N-(2-oxo-2-(prop-2-ynylamino)ethyl)-5,6-dihydro-4H-cyclopenta[c] thiophene-1-carboxamide], the mortality at 300 µM is reported as ≥ 80%.
In the case of `FC(F)(F)C1(c2cc(Cl)cc(Cl)c2)CC(c2cc3cc(Cl)ccc3s2)=NO1` (centres unmarked) [Example 237, 3-(5-chlorobenzo [b]thiophen-2-yl)-5-(3,5-dichloro-phenyl)-5-(trifluoro-methyl)-4,5-dihydroisoxazole], the mortality at 300 µM is reported as ≥ 80%.
With `O=C(N[C@@H]1CCNC1=O)c1sc(C2=NOC(c3cc(Cl)cc(Cl)c3)(C(F)(F)F)C2)c2c1CCC2` (stereo partly drawn) [Example 41, 3-(5-(3,5-dichloro-phenyl)-5-(trifluoro-methyl)-4,5-dihydro-isoxazol-3-yl)-N-((R)-2-oxopyrrolidin-3-yl)-5,6-dihydro-4H-cyclopenta[c] thiophene-1-carboxamide] the mortality at 300 µM was ≥ 80%.
For `O=C(NCC1CCCO1)c1sc(C2=NOC(c3cc(Cl)cc(Cl)c3)(C(F)(F)F)C2)c2c1CCCC2` (centres unmarked) [Example 64, 3-(5-(3,5-dichloro-phenyl)-5-(trifluoro-methyl)-4,5-dihydro-isoxazol-3-yl)-N-((tetrahydrofuran-2-yl)methyl)-4,5,6,7-tetrahydro-benzo[c]thiophene-1-carboxamide], the mortality at 300 µM was ≥ 80%.
`O=C(NC1CCN(CC(F)(F)F)C1=O)c1sc(C2=NOC(c3cc(Cl)cc(Cl)c3)(C(F)(F)F)C2)c2c1CCC2` (centres unmarked) [Example 86, 3-(5-(3,5-dichloro-phenyl)-5-(trifluoro-methyl)-4,5-dihydro-isoxazol-3-yl)-N-(2-oxo-1-(2,2,2-trifluoroethyl)pyrrolidin-3-yl)-5,6-dihydro-4H-cyclopenta[c] thiophene-1-carboxamide] was tested, and the mortality at 300 µM was ≥ 80%.
`O=C(NC1CCS(=O)(=O)CC1)c1sc(C2=NOC(c3cc(Cl)c(F)c(Cl)c3)(C(F)(F)F)C2)c2c1CCCC2` (centres unmarked) [Example 80, 3-[5-(3,5-Dichloro-4-fluoro-phenyl)-5-trifluoromethyl-4,5-dihydro-isoxazol-3-yl]-4,5,6,7-tetrahydro-benzo[c] thiophene-1-carboxylic acid (1,1-dioxo-hexahydro-thiopyran-4-yl)-amide] was tested, and the mortality at 300 µM was ≥ 80%.
`C#CCNC(=O)CNC(=O)c1sc(C2=NO[C@@](c3cc(Cl)c(F)c(Cl)c3)(C(F)(F)F)C2)c2c1CCC2` [Example 249, (S)-3-(5-(3,5-dichloro-4-fluorophenyl)-5-(trifluoromethyl)-4,5-dihydroisoxazol-3-yl)-N-(2-oxo-2-(prop-2-ynylamino)ethyl)-5,6-dihydro-4H-cyclopenta[c]thiophene-1-carboxamide] was tested, and the mortality at 300 µM was ≥ 80%.
With `O=C(N[C@@H]1CCNC1=O)c1cnc2sc(C3=NOC(c4cc(Cl)cc(Cl)c4)(C(F)(F)F)C3)cc2c1` (stereo partly drawn) [Example 241, 2-(5-(3,5-dichloro-phenyl)-5-(trifluoro-methyl)-4,5-dihydro-isoxazol-3-yl)-N-((R)-2-oxopyrrolidin-3-yl)thieno[2,3-b] pyridine-5-carboxamide] the mortality at 300 µM was ≥ 80%.
With `O=C(NC1CCN(CC(F)(F)F)C1=O)c1sc(C2=NOC(c3cc(Cl)c(Cl)c(Cl)c3)(C(F)(F)F)C2)c2c1CCCC2` (centres unmarked) [Example 76, N-(2-oxo-1-(2,2,2-trifluoroethyl)pyrrolidin-3-yl)-3-(5-(3,4,5-trichloro-phenyl)-5-(trifluoro-methyl)-4,5-dihydro-isoxazol-3-yl)-4,5,6,7-tetrahydro-benzo[c]thiophene-1-carboxamide] the mortality at 300 µM was ≥ 80%.
With `CSCCNC(=O)c1sc(C2=NOC(c3cc(Cl)cc(Cl)c3)(C(F)(F)F)C2)c2c1CCCC2` (centres unmarked) [Example 65, 3-(5-(3,5-dichloro-phenyl)-5-(trifluoro-methyl)-4,5-dihydro-isoxazol-3-yl)-N-(2-(methylthio)ethyl)-4,5,6,7-tetra-hydrobenzo[c] thiophene-1-carboxamide] the mortality at 300 µM was ≥ 80%.
For `O=C(NC1CSC1)c1sc(C2=NOC(c3cc(Cl)cc(Cl)c3)(C(F)(F)F)C2)c2c1CCCC2` (centres unmarked) [Example 70, 3-(5-(3,5-dichloro-phenyl)-5-(trifluoro-methyl)-4,5-dihydro-isoxazol-3-yl)-N-(thietan-3-yl)-4,5,6,7-tetrahydrobenzo[c] thiophene-1-carboxamide], the mortality at 300 µM was ≥ 80%.
For `O=C(NC1CCOCC1)c1sc(C2=NOC(c3cc(Cl)c(Cl)c(Cl)c3)(C(F)(F)F)C2)c2c1CCCC2` (centres unmarked) [Example 77, N-(tetrahydro-2H-pyran-4-yl)-3-(5-(3,4,5-trichlorophenyl)-5-(trifluoromethyl)-4,5-dihydroisoxazol-3-yl)-4,5,6,7-tetrahydrobenzo[c] thiophene-1-carboxamide], the mortality at 300 µM was ≥ 80%.
